# Measurements taken from patent US20050171004A1, “Use of cardiotrophin-1 to promote wound healing and counteract overt fibrosis” (priority 2003, published 2005).
# Columns and labels:
# [1] = test system: cardiac fibroblasts; test: Western analysis of myosin light chain phosphorylation; format: cell-based, rat; conditions: co-incubation with inhibitor, 30 minutes
# Description: (§1) Protein concentrations of tissue and cell lysates were determined by the BCA method (Smith et al., 1985, Anal Biochem 150: 76-85). Proteins were separated by 8-12% SDS-PAGE and transferred to PVDF membrane (Roche, Indianapolis, Ind.) for 1 hour at 300 mA for small proteins or for 2 hours at 500 mA for proteins greater than 100 kDa. Membranes were blocked with 5% non-fat skim milk in tris-buffered saline containing 0.2% Tween 20 (TBST). Proteins were visualized with ECL Plus (Amersham) after probing with primary and secondary antibodies. Band intensity was quantified using a CCD camera imaging densitometer (GS670, Bio-Rad Laboratories (Canada) Ltd. Mississauga, Ontario).
# The infarct zone is repopulated by interstitial fibroblasts that infiltrate the scar after MI. […] Similar results were obtained when using the Costar Transwell® system (data not shown). To determine how the chemotactic response is transduced, we used specific inhibitors of intracellular signaling pathways. […] This effect could be blunted by co-incubation with AG490 (FIG. 22). […] Since activation of myosin motors is required for effective cell migration, and CT-1 induced migration could be inhibited by co-incubation with a myosin light chain kinase inhibitor, we sought to determine the effect of CT-1 on the phosphorylation status of myosin light chain. Myosin light chain regulates the ATPase activity of myosin heavy chain, and thus overall contractile activity. […] Myosin light chain phosphorylation could be prevented by co-incubation with ML-7 or W7 but not AG490 or PP2 (FIG. 25b).
# [2] = test system: other kinases; conditions: cited from earlier work
# [3] = test system: cardiac fibroblasts; test: Protein synthesis assay (3H-leucine incorporation); format: cell-based, rat; conditions: co-incubation with inhibitor, CT-1 10 ng/mL
# Description: Protein synthesis was determined using the methods of Wolf and Neilson (Wolf and Neilson, 1990, Am J Physiol 259: 768-777). 2.5×10^4 cells (counted with a hemacytometer) were loaded into each well of 24-well plates, allowed to attach overnight, then rendered quiescent in serum free DMEM/F12 for 24 hours. Cells were stimulated with CT-1 for an additional 24 hours in the presence of 2 μCi/mL ^3H-leucine with or without inhibitors of signaling pathways. The culture media was aspirated, cells rinsed twice with phosphate buffered saline and proteins precipitated by two incubations with 10% TCA at room temperature. The precipitated protein was solubilized in 300 μl lysis buffer containing 0.5 M NaOH and 1% Triton X-100 at room temperature for 15 minutes. The lysate was transferred to scintillation vials, and beta emission was determined with 3 ml Ecolume scintillation fluid (ICN Pharmaceuticals) and a scintillation counter (LS6500, Beckman Coulter, Fullerton, Calif.).
# [4] = test system: cardiac fibroblasts; test: Western analysis of phosphorylation of translational regulatory proteins; format: cell-based, rat; conditions: co-incubation with inhibitor
# Description: as §1
# To determine the effect of CT-1 on protein synthesis in cardiac fibroblasts we measured incorporation of ^3H-labeled leucine. […] Since the activity of translational regulatory proteins is modified by phosphorylation, we used phospho-specific antibodies to determine if CT-1 directly influenced the activity of these regulatory proteins.
# We then determined the effect of pharmacologic inhibitors on the activation of this signaling cascade.
# [5] = test system: cardiac fibroblasts; test: Wounded monolayer model, cortactin immunostaining; format: cell-based, rat; conditions: co-incubation with inhibitor
# Description: Cardiac fibroblasts were seeded onto coverslips in 6-well dishes and allowed to proliferate. Once the cells were near confluency, they were serum deprived for 24 hours. A scrape was made down the middle of the coverslip with the blunt end of a 1 ml syringe and the media was changed again. Cells were further incubated in the presence or absence of CT-1 and inhibitors at specified concentrations for specified times. The cells were then subjected to immunofluorescence staining as described herein.
# [6] = test system: angiotensinogen mRNA; conditions: cited from earlier work
smiles,measurement,setting,value
NCCCCCCNS(=O)(=O)c1cccc2c(Cl)cccc12 [W7],effect on CT-1 induced myosin light chain phosphorylation,[1],prevented
CC(C)(C)n1nc(-c2ccc(Cl)cc2)c2c(N)ncnc21 [PP2],effect on CT-1 induced myosin light chain phosphorylation,[1],not
O=S(=O)(c1cccc2c(I)cccc12)N1CCCNCC1 [ML-7],effect on CT-1 induced myosin light chain phosphorylation,[1],prevented
COc1cccc(-c2cc(=O)c3ccccc3o2)c1N [PD98059],concentration at which selectivity is maintained,[2],≤ 50 µM
same,effect on CT-1 induced protein synthesis (3H-leucine uptake),[3],suppressed
same,"effect on CT-1 induced phosphorylation of Akt, mTOR, p70 S6 kinase, 4EB-P1 and S6 ribosomal protein",[4],lesser effect
same,"effect on basal and CT-1 induced phosphorylation of ERK 1/2, Mnk1, and eIF4E",[4],greatest inhibitory effect
C[S+]([O-])c1ccc(-c2nc(-c3ccncc3)c(-c3ccc(F)cc3)[nH]2)cc1 (stereo not drawn) [SB203580],effect on CT-1 induced protein synthesis (3H-leucine uptake),[3],suppressed
same,"effect on CT-1 induced phosphorylation of Akt, p70 S6 kinase and Mnk1",[4],suppressed
"N#C/C(=C\c1ccc(O)c(O)c1)C(=O)NCc1ccccc1 [AG490, Tyrphostin B42]",effect on CT-1 induced myosin light chain phosphorylation,[1],not
same,effect on CT-1 induced protein synthesis (3H-leucine uptake),[3],suppressed
same,effect on CT-1 induced cortactin localization at the leading edge,[5],blunted
same,angiotensinogen mRNA production in response to CT-1 stimulation,[6],attenuate
same,"effect on CT-1 induced activation of ERK 1/2, p38 MAPK, mTOR, p70 S6 kinase S421/T424, or S6 ribosomal protein",[4],did not significantly affect
same,"effect on CT-1 induced phosphorylation of Akt at both sites, p70 S6 kinase T389, Mnk1, eIF4E and 4E-BP1",[4],suppressed
